≈ marks a conversion by molar mass, not a printed value.
Legend:
Format in all cases: functional
[1] = system: Mycobacterium tuberculosis; assay: Ratio of MBC99.9 to MIC for streptomycin, ethambutol, kanamycin, isoniazid, rifabutin, rifampicin, levofloxacin, and ciprofloxacin-resistant Mycobacterium tuberculosis LV19
[2] = system: Mycobacterium tuberculosis; assay: Ratio of MBC99.9 to MIC for isoniazid, rifampicin, and rifabutin-resistant Mycobacterium tuberculosis LV2
[3] = system: Mycobacterium tuberculosis; assay: Antimycobacterial activity against streptomycin, ethambutol, kanamycin, isoniazid, rifabutin, rifampicin, levofloxacin, and ciprofloxacin-resistant Mycobacterium tuberculosis LV19 by microbroth dilution method
[4] = system: Mycobacterium tuberculosis; assay: Antimycobacterial activity against isoniazid, rifampicin, and rifabutin-resistant Mycobacterium tuberculosis LV2 by microbroth dilution method

`C=C1C[C@@]23C=CC(=O)[C@@](C)(CCC(=O)Nc4c(O)ccc(C(=O)O)c4O)[C@@H]2C[C@@H]1CC3` (racemic) [PLATENCIN] gave a Ratio [1] greater than 64, a Ratio [2] greater than 64 and an MIC [3] of 1 µg/mL (≈ 2.35 µM). The MIC [4] was 1 µg/mL (≈ 2.35 µM).

Source: ChEMBL document CHEMBL3217504, “Potent growth inhibitory activity of ()-platencin towards multi-drug-resistant and extensively drug-resistant Mycobacterium tuberculosis” (2013)
